From the NIST ThermoML archive (doi:10.1021/je049685z)
± gives the expanded uncertainty stated by the source.

Experiments:
[1] = xn = mol fraction of the nth substance listed; settings: Liquid, x1 = 1
[2] = Liquid

Q: What does the source list for `CCCO` [propan-1-ol] + Cc1ccccc1?
A: mass density ([1]; 303.15 K, 100 kPa): 795.6 ± 0.4 kg/m3; mass density ([1]; 303.15 K, 5000 kPa): 799.5 ± 0.4 kg/m3; mass density ([1]; 303.15 K, 10000 kPa): 803.4 ± 0.5 kg/m3; mass density ([1]; 303.15 K, 15000 kPa): 807 ± 0.6 kg/m3; mass density ([1]; 303.15 K, 20000 kPa): 810.5 ± 0.7 kg/m3; mass density ([1]; 303.15 K, 25000 kPa): 813.9 ± 0.8 kg/m3; mass density ([1]; 303.15 K, 30000 kPa): 817.2 ± 0.9 kg/m3; mass density ([1]; 313.15 K, 100 kPa): 787.6 ± 0.4 kg/m3; mass density ([1]; 313.15 K, 5000 kPa): 791.6 ± 0.5 kg/m3; mass density ([1]; 313.15 K, 10000 kPa): 795.7 ± 0.5 kg/m3; mass density ([1]; 313.15 K, 15000 kPa): 799.5 ± 0.6 kg/m3; mass density ([1]; 313.15 K, 20000 kPa): 803.2 ± 0.7 kg/m3; mass density ([1]; 313.15 K, 25000 kPa): 806.7 ± 0.8 kg/m3; mass density ([1]; 313.15 K, 30000 kPa): 810.1 ± 0.9 kg/m3; mass density ([1]; 323.15 K, 100 kPa): 779.1 ± 0.4 kg/m3; mass density ([1]; 323.15 K, 5000 kPa): 783.4 ± 0.5 kg/m3; mass density ([1]; 323.15 K, 10000 kPa): 787.7 ± 0.6 kg/m3; mass density ([1]; 323.15 K, 15000 kPa): 791.7 ± 0.7 kg/m3; mass density ([1]; 323.15 K, 20000 kPa): 795.6 ± 0.7 kg/m3; mass density ([1]; 323.15 K, 25000 kPa): 799.3 ± 0.8 kg/m3; mass density ([1]; 323.15 K, 30000 kPa): 802.9 ± 0.9 kg/m3; mass density ([1]; 333.15 K, 100 kPa): 770.6 ± 0.4 kg/m3; mass density ([1]; 333.15 K, 5000 kPa): 775.1 ± 0.5 kg/m3; mass density ([1]; 333.15 K, 10000 kPa): 779.6 ± 0.6 kg/m3; mass density ([1]; 333.15 K, 15000 kPa): 783.9 ± 0.7 kg/m3; mass density ([1]; 333.15 K, 20000 kPa): 787.9 ± 0.8 kg/m3; mass density ([1]; 333.15 K, 25000 kPa): 791.8 ± 0.9 kg/m3; mass density ([1]; 333.15 K, 30000 kPa): 795.5 ± 1 kg/m3

Q: With `Cc1ccccc1` [toluene] as the compound, how does the mass density ([2]; 303.15 K, 100 kPa) read?
A: The mass density was 857.4 ± 0.3 kg/m3.

Q: And the mass density ([2]; 303.15 K, 5000 kPa)?
A: The mass density was 861.3 ± 0.3 kg/m3.

Q: What about the mass density ([2]; 303.15 K, 10000 kPa) of the same compound?
A: The mass density was 865.1 ± 0.4 kg/m3.

Q: What about the mass density ([2]; 303.15 K, 15000 kPa) of the same compound?
A: The mass density was 868.7 ± 0.4 kg/m3.

Q: And the mass density ([2]; 303.15 K, 20000 kPa)?
A: The mass density was 872.3 ± 0.5 kg/m3.

Q: And the mass density ([2]; 303.15 K, 25000 kPa)?
A: Its mass density is 875.6 ± 0.6 kg/m3.

Q: And the mass density ([2]; 303.15 K, 30000 kPa)?
A: The mass density was 878.9 ± 0.6 kg/m3.

Q: What about the mass density ([2]; 313.15 K, 100 kPa) of the same compound?
A: The mass density was 848.1 ± 0.3 kg/m3.

Q: And the mass density ([2]; 313.15 K, 5000 kPa)?
A: The mass density was 852.1 ± 0.3 kg/m3.

Q: What about the mass density ([2]; 313.15 K, 10000 kPa) of the same compound?
A: The mass density was 856.2 ± 0.4 kg/m3.

Q: What about the mass density ([2]; 313.15 K, 15000 kPa) of the same compound?
A: The mass density was 860 ± 0.5 kg/m3.

Q: What about the mass density ([2]; 313.15 K, 20000 kPa) of the same compound?
A: Its mass density is 863.7 ± 0.5 kg/m3.

Q: What about the mass density ([2]; 313.15 K, 25000 kPa) of the same compound?
A: Its mass density is 867.2 ± 0.6 kg/m3.

Q: What about the mass density ([2]; 313.15 K, 30000 kPa) of the same compound?
A: Its mass density is 870.7 ± 0.6 kg/m3.

Q: And the mass density ([2]; 323.15 K, 100 kPa)?
A: Its mass density is 838.6 ± 0.3 kg/m3.

Q: And the mass density ([2]; 323.15 K, 5000 kPa)?
A: Its mass density is 842.9 ± 0.3 kg/m3.

Q: And the mass density ([2]; 323.15 K, 10000 kPa)?
A: The mass density was 847.2 ± 0.4 kg/m3.

Q: And the mass density ([2]; 323.15 K, 15000 kPa)?
A: The mass density was 851.2 ± 0.5 kg/m3.

Q: And the mass density ([2]; 323.15 K, 20000 kPa)?
A: Its mass density is 855.1 ± 0.5 kg/m3.

Q: And the mass density ([2]; 323.15 K, 25000 kPa)?
A: The mass density was 858.9 ± 0.6 kg/m3.

Q: What about the mass density ([2]; 323.15 K, 30000 kPa) of the same compound?
A: The mass density was 862.5 ± 0.7 kg/m3.

Q: And the mass density ([2]; 333.15 K, 100 kPa)?
A: The mass density was 829.2 ± 0.3 kg/m3.

Q: What about the mass density ([2]; 333.15 K, 5000 kPa) of the same compound?
A: Its mass density is 833.7 ± 0.4 kg/m3.

Q: What about the mass density ([2]; 333.15 K, 10000 kPa) of the same compound?
A: The mass density was 838.2 ± 0.4 kg/m3.

Q: What about the mass density ([2]; 333.15 K, 15000 kPa) of the same compound?
A: Its mass density is 842.5 ± 0.5 kg/m3.

Q: What about the mass density ([2]; 333.15 K, 20000 kPa) of the same compound?
A: Its mass density is 846.6 ± 0.6 kg/m3.

Q: And the mass density ([2]; 333.15 K, 25000 kPa)?
A: Its mass density is 850.5 ± 0.6 kg/m3.

Q: What about the mass density ([2]; 333.15 K, 30000 kPa) of the same compound?
A: The mass density was 854.3 ± 0.7 kg/m3.

Q: With `CCCO` [propan-1-ol] as the compound, how does the mass density ([2]; 303.15 K, 100 kPa) read?
A: Its mass density is 795.6 ± 0.4 kg/m3.

Q: What about the mass density ([2]; 303.15 K, 5000 kPa) of the same compound?
A: The mass density was 799.5 ± 0.4 kg/m3.

Q: And the mass density ([2]; 303.15 K, 10000 kPa)?
A: Its mass density is 803.4 ± 0.5 kg/m3.

Q: And the mass density ([2]; 303.15 K, 15000 kPa)?
A: Its mass density is 807 ± 0.6 kg/m3.

Q: And the mass density ([2]; 303.15 K, 20000 kPa)?
A: The mass density was 810.5 ± 0.7 kg/m3.

Q: And the mass density ([2]; 303.15 K, 25000 kPa)?
A: The mass density was 813.9 ± 0.8 kg/m3.

Q: And the mass density ([2]; 303.15 K, 30000 kPa)?
A: Its mass density is 817.2 ± 0.9 kg/m3.

Q: And the mass density ([2]; 313.15 K, 100 kPa)?
A: Its mass density is 787.6 ± 0.4 kg/m3.

Q: And the mass density ([2]; 313.15 K, 5000 kPa)?
A: The mass density was 791.6 ± 0.5 kg/m3.

Q: And the mass density ([2]; 313.15 K, 10000 kPa)?
A: Its mass density is 795.7 ± 0.5 kg/m3.

Q: And the mass density ([2]; 313.15 K, 15000 kPa)?
A: Its mass density is 799.5 ± 0.6 kg/m3.

Q: And the mass density ([2]; 313.15 K, 20000 kPa)?
A: Its mass density is 803.2 ± 0.7 kg/m3.

Q: And the mass density ([2]; 313.15 K, 25000 kPa)?
A: Its mass density is 806.7 ± 0.8 kg/m3.

Q: And the mass density ([2]; 313.15 K, 30000 kPa)?
A: The mass density was 810.1 ± 0.9 kg/m3.

Q: And the mass density ([2]; 323.15 K, 100 kPa)?
A: Its mass density is 779.1 ± 0.4 kg/m3.

Q: And the mass density ([2]; 323.15 K, 5000 kPa)?
A: Its mass density is 783.4 ± 0.5 kg/m3.

Q: And the mass density ([2]; 323.15 K, 10000 kPa)?
A: The mass density was 787.7 ± 0.6 kg/m3.

Q: What about the mass density ([2]; 323.15 K, 15000 kPa) of the same compound?
A: Its mass density is 791.7 ± 0.7 kg/m3.

Q: And the mass density ([2]; 323.15 K, 20000 kPa)?
A: The mass density was 795.6 ± 0.7 kg/m3.

Q: And the mass density ([2]; 323.15 K, 25000 kPa)?
A: The mass density was 799.3 ± 0.8 kg/m3.

Q: What about the mass density ([2]; 323.15 K, 30000 kPa) of the same compound?
A: The mass density was 802.9 ± 0.9 kg/m3.

Q: What about the mass density ([2]; 333.15 K, 100 kPa) of the same compound?
A: Its mass density is 770.6 ± 0.4 kg/m3.

Q: What about the mass density ([2]; 333.15 K, 5000 kPa) of the same compound?
A: Its mass density is 775.1 ± 0.5 kg/m3.

Q: What about the mass density ([2]; 333.15 K, 10000 kPa) of the same compound?
A: Its mass density is 779.6 ± 0.6 kg/m3.

Q: And the mass density ([2]; 333.15 K, 15000 kPa)?
A: Its mass density is 783.9 ± 0.7 kg/m3.

Q: What about the mass density ([2]; 333.15 K, 20000 kPa) of the same compound?
A: The mass density was 787.9 ± 0.8 kg/m3.

Q: What about the mass density ([2]; 333.15 K, 25000 kPa) of the same compound?
A: The mass density was 791.8 ± 0.9 kg/m3.

Q: What about the mass density ([2]; 333.15 K, 30000 kPa) of the same compound?
A: The mass density was 795.5 ± 1 kg/m3.
